From article PMC12579162, “Synthesized Depside Molecules Suppress the Progression of Colorectal Cancer by Binding VDAC1/PHB/MMP9 Being at the Crossroads of Stemness, Motility, Apoptosis, and Metabolism” (MedComm, 2025) come the findings set out here.

SMILES strings stand for the structures. Where two headings read alike, the source gives them in different places. A value given as a limit tells only on which side of the number the result lay.

One data set concerns NIH3T3 cells. Description: MTT cell viability, NIH3T3. The following applies: Mus musculus, 48 h, MTT assay. The data set is classed as cell-based. The procedure: (§1) Cells (3 × 10^3 cells/well) were seeded on a 96‐well plate, grown overnight, and then treated with compounds at indicated concentrations for 48 h. After incubation with MTT for 4 h at 37°C, cells were lysed with 150 µL of DMSO (Sigma–Aldrich, St. Louis, USA). Absorbance was measured at 570 nm on a microplate reader with the Gen5 software (v.2.03.1; BioTek, Winooski, VT, USA).
(Tetrazolium assays rely on reduction of a dye to a coloured formazan, in cell work by metabolically active cells.)

Data set [1] in a line: Tissue distribution in CT26 tumor-bearing mice (LC–MS/MS). The data set is classed as in vivo. The following applies: Balb/c mice, 10 mg/kg; for distribution in tumor and intestines: 24 h, compared with TU and DA; for concentration at 24 h: mouse. The protocol: Concentrations of TU, DA, SB4, and SB5 in tissues (liver, intestine, and tumor) and plasma were measured using LC–MS/MS. Samples were prepared by 40 µL of plasma or the supernatant separated from the tissue pellet and added 120 µL of acetonitrile (ACN) containing internal standard (IS). The samples were vortexed, sonicated for 30 min, and then left on ice for 15 min. Subsequently, the samples were centrifuged at 3000×g for 20 min, and the supernatant was analyzed. Calibration curves were prepared by matrix matched with tissue supernatants‐treated DMSO. The standard concentrations were set at 0, 62.5, 250, and 1000 nM for each compound. The LC–MS/MS system comprised a 40D‐XS UHPLC system (Shimadzu), and API 4000 mass spectrometer equipped with a Turbo V IonSpray source (Applied Biosystems). The sample separation was performed on a Waters Atlantis dC18 column (2.1 × 100 mm, 3 µm) using a mobile phase consisting of 0.1% formic acid in water (mobile phase A) and 0.1% formic acid in ACN (mobile phase B). A linear gradient of the two solvents was used (0 min, 0% B; 4 min, 50% B; 7 min, 95% B; 8 min, 0% B), and the equilibration time was 2 min. The flow rate was set at 0.4 mL/min, the column temperature was maintained at 30°C, and the injection volume was 10 µL.
MS/MS analysis was conducted in multiple reaction monitoring (MRM). In positive ion mode transitions were set for DA (m/z 375 → 193), SB4 (m/z 447 → 193), SB5 (m/z 461 → 193), and the IS carbamazepine (100 nM, m/z 237 → 197). In negative ion mode, MRM transitions were monitored for TU (m/z 339 → 217) and the IS 4‐methylumbelliferone (300 nM, m/z 175 → 133). The Turbo V Ion Spray interface was operated in 5500 V (pos) or −4500 V (neg), with a source temperature of 600°C. Nebulizing gas flow, auxiliary gas flow, and curtain gas flow were set at 50, 40, and 30 L/min, respectively, while the collision gas pressure was maintained at 3.4 × 10^−⁵ Torr. Data were analyzed by analyst 1.6.2 (AB Sciex, Framingham, USA).

For the next data set, the system named is HT29 cells. Description: MTT cell viability, HT29. Format: cell-based. The settings on record: Homo sapiens, HT-29; 48 h, MTT assay. The procedure:
as §1

A further data set deals with HCT116 cells. Put plainly: MTT cell viability, HCT116. Format: cell-based. The settings on record: Homo sapiens, HCT-116; 48 h, MTT assay. The protocol:
as §1

The test system of the next data set is HEK293T cells. Description: MTT cell viability, HEK293T. The following applies: Homo sapiens, HEK-293T; 48 h, MTT assay. Format: cell-based. The procedure:
as §1

In data set [2] the test system is CRC cells (CaCo2, DLD1, HCT116, HT29, and SW620). Put plainly: Spheroid formation assay, CRC cell lines. Format: cell-based, human. The following applies: 2.5 and 5 µM, 10–14 days. The protocol:
Monolayer cells were separated into single‐cell suspensions at around 70% confluence using a solution of trypsin. After that, the cells were added to N2‐supplemented DMEM/F12 that contained human basal fibroblast growth factor and human recombinant epidermal growth factor. Cells seeded at a density of 5 × 10^3 cells/well in ultra‐low attachment 24‐well plates (Corning Inc., Corning, NY, USA). After 10–14 days of culture, spheres were quantitated by inverted phase contrast microscopy. The relative sphere formation ability was calculated through the IMT iSolution software (IMT iSolution Inc., Northampton, NJ, USA) measuring the pixel intensity of the sphere area randomly in each plate.

Data set [3] deals with MMP9 promoter in HEK293T cells. Put plainly: MMP9 promoter reporter assay. Format: cell-based, human. The following applies: 2.5 and 5 µM, 24 h. The protocol: HEK293T was plated in a 24-well plate, left to attach, and then transfected with 100 ng of AP-1, STAT, Gli, CSL, TOPFLASH (with 100 ng β-catenin), NF-kB, Hes-1 and MMP9 reporter plasmids with 2 ng of Renilla-luc (pRL-TK) plasmid. MMP9 reporter assays were tested by stimulating Gli1-Flag, Gli2-Flag, ΔEN1-Myc, and MYC-flag plasmids. Transfections were performed using the X-treme GENE 9 DNA transfection reagent (Roche, Werk Penzberg, Germany). After 24 hours transfection, cells were treated with compounds or DMSO and incubated for 24 h at 37 °C under 5% CO2. The Dual-Luciferase reporter assay system (Promega, Madison, WI, USA) was used.
A general note: A reporter such as luciferase makes a cellular process visible.

Another data set has as its system DLD1 cells. Put plainly: MTT cell viability, DLD1. The settings on record: Homo sapiens, DLD-1; 48 h, MTT assay. The data set is classed as cell-based. The protocol:
as §1

Another data set concerns CSC221 cells. Put plainly: MTT cell viability, CSC221. Format: cell-based. The settings on record: Homo sapiens; 48 h, MTT assay. The protocol:
as §1

Data set [4] deals with CSC221, DLD1, CaCo2, HT29, HCT116, and SW620 cells. Description: Seahorse XF Cell Mito Stress Test. The data set is classed as cell-based, human. The following applies: 5 µM, 48 h. The protocol:
Seahorse XF96 extracellular flux analyzer (Agilent, Santa Clara, CA, USA) was used for glycolytic rate and cell mito stress test assays. Cells were seeded at 1 × 10^4 cells/well, incubated overnight in culture medium (2% FBS), and then treated with DMSO or compound for 48 h. The plated cells were twice washed and loaded (180 µL) with assay media enhanced with glutamine, sodium pyruvate, and glucose on the day of analysis. Before analysis, the cells were incubated for 1 h at 37°C in a non‐CO2 incubator. Then, cell mito stress, mito tox, or glycolytic rate assay was tested. Agilent Seahorse XF Mito Stress Test Kit was utilized in accordance with Agilent Seahorse's standard methodology. This test examines the OCR of cells directly, which provides important information on mitochondrial function. First, 1 µM oligomycin (inhibits ATP synthase) was injected. The second injection was FCCP (1 µM), an uncoupling agent that compresses the proton gradient and disturbs the mitochondrial membrane potential. Last injection with 0.5 µM Rotenone (Rot; a complex I inhibitor) + antimycin A (AA; a complex III inhibitor) was loaded for OCR analysis. Agilent Seahorse XF Glycolytic Rate Assay was utilized in accordance with Agilent Seahorse's standard methodology. […] The results were analyzed using the Wave software (Agilent).

The next data set has as its system CaCo2 cells. Description: MTT cell viability, CaCo2. Format: cell-based. The following applies: Homo sapiens, Caco-2; 48 h, MTT assay. The protocol: as §1
Where [5] appears, read: liver, read-out: concentration in liver.
The mark [6] stands for this setting: plasma, read-out: quantity in plasma.

Usually IC50 stands for the concentration at which inhibition is half-maximal. Higher therefore signals a need for much substance. Consider `COCCCOc1c(C)c(OC(=O)c2c(C)cc(OC)c(C)c2OC)cc(C)c1C(=O)OC` [SB5, 4-(Methoxycarbonyl)-3-(3-methoxypropoxy)-2,5-dimethylphenyl 2,4-dimethoxy-3,6-dimethylbenzoate], for which the IC50 worked out at 112 µM in the data set on NIH3T3 cells; 7.47 µM in the data set with HT29 cells; 4.5 µM in the data set with HCT116 cells; 63.2 µM in the data set on HEK293T cells; 57.8 µM in the data set on DLD1 cells; 131 µM in the data set with CSC221 cells. In the data set with CaCo2 cells, this compound had an IC50 of 2.77 µM. Besides, the “distribution in tumor and intestines” value in data set [1] is “bioavailability is improved compared with TU and DA”. For the same compound, the concentration at 24 h in data set [1] (setting [5]) was 1 to 2 nM; in data set [1] (setting [6]) it was under 2 nM. The spheroid formation result in [2] was “suppressed spheroid formation”. In data set [3], the MMP9 promoter activity entry is listed as “downregulated”. Further, the “oxygen consumption rate (OCR)” value in data set [4] is “dramatically suppresses the oxygen consumption rate (OCR)”.
Consider `COCCOc1c(C)c(OC(=O)c2c(C)cc(OC)c(C)c2OC)cc(C)c1C(=O)OC` [SB4, 4-(Methoxycarbonyl)-3-(2-methoxyethoxy)-2,5-dimethylphenyl 2,4-dimethoxy-3,6-dimethylbenzoate], for which the half-inhibitory concentration (IC50) was 121 µM with NIH3T3 cells; 3.95 µM with HT29 cells; 11.7 µM in the data set with HCT116 cells; 19 µM in the data set on HEK293T cells; 4.08 µM in the data set with DLD1 cells; 60 µM in the data set on CSC221 cells. In the data set on CaCo2 cells, this compound registered an IC50 of 8.74 µM. The “distribution in tumor and intestines” value in data set [1] is “bioavailability is improved compared with TU and DA”. The concentration at 24 h in data set [1] (setting [5]) was 1 to 2 nM; in data set [1] (setting [6]) it was under 2 nM. The spheroid formation entry in [2] is listed as “suppressed spheroid formation”. The MMP9 promoter activity entry in data set [3] is “downregulated”. In data set [4], the “oxygen consumption rate (OCR)” value is given as “dramatically suppresses the oxygen consumption rate (OCR)”.
